Assay results reported in US8906111B2, “Artificial bone material having controlled calcium ion elution” (The University of Tokyo, priority 2008, dated 2014).

Assays:
[1] = test system: Macrophage-like cells RAW267.4; assay: Release of [3H] arachidonic acid (lipid mediator) from macrophage-like cells treated with CaCl2-gluconic acid solutions; assay type: cell-based; settings: FIG. 3
Description: An increased concentration of extracellular calcium ions activates an inflammatory response route through increase of intracellular calcium ion and/or a sensing mechanism of extracellular calcium ion. The present inventors studied whether induction of inflammatory responses due to increase of calcium ions can be prevented or not by chelating calcium ions. Solutions of 5 mM CaCl2—0.384% gluconic acid and 7.5 mM CaCl2—0.384% gluconic acid (referred to as Ca^2+Gluc.Acid), the pH of which were adjusted to approximately 7 with NaOH, were prepared and allowed to stand for one hour at room temperature. Macrophage-like cells RAW267.4, which were labeled with 1 μCi [^3H] arachidonic acid one day before, were treated with respective CaCl2-gluconic acid solutions for one hour, and measured for the amount of released lipid mediator with a liquid scintillation counter.
FIG. 3 is a graph, in place of a drawing, showing that gluconic acid prevents inflammatory responses induced by calcium ions. Each vertical axis of FIGS. 3A and 3B indicates release of arachidonic acid (rates of released [^3H] arachidonic acid). The higher value refers to more arachidonic acid being released, indicating an activation of arachidonate cascade, which is one of the major inflammatory responses. In FIG. 3, the “mock” refers to a sample without CaCl2 or gluconic acid addition, which was prepared as a control. […]

[2] = Chelating effect on calcium ion measured with a calcium ion electrode; assay type: physicochemical; settings: 0.25% to 25% gluconic acid containing 2.5 mM CaCl2, pH 7.0; FIG. 2
Description: To confirm chelating effects of gluconic acid on calcium ion, the concentration of calcium ion in the presence of gluconic acid was measured with a calcium ion electrode. The vertical axis of FIG. 2 indicates the concentration of calcium ion (Ca^2+) (mg/L). […] The results might be attributed to the gluconic acid chelating calcium ions.

| Compound | release of arachidonic acid (amount of released lipid mediator) ([1]; CaCl2 (5 mM or 7.5 mM) without gluconic acid, compared with the mock) | concentration of calcium ion (Ca2+) [2] | release of arachidonic acid (rates of released [3H] arachidonic acid) ([1]; 5 mM or 7.5 mM CaCl2 with 0.384% gluconic acid, pH approx. 7, cells treated one hour) |
| --- | --- | --- | --- |
| [Ca+2].[Cl-].[Cl-] [CaCl2] | released increased amount of lipid mediator | – | – |
| O=C(O)[C@H](O)[C@@H](O)[C@H](O)[C@H](O)CO [gluconic acid] | – | the higher the concentration of gluconic acid became, the concentration of calcium ion lowered | arachidonate cascade activation was prevented |
